Values of other authors as cited in patent US7662571B2, “Mitochondrial markers of ischemia” (Nourheart Inc., priority 2005, dated 2010).
One block for each substance: values may come before it. No end group written: not given here.

Key:
[1] = system: neutrophils
[2] = target: T1, FMLP receptor (68-kDa protein) (Homo sapiens, UniProt P21462)
T1 sequence (P21462 1-350): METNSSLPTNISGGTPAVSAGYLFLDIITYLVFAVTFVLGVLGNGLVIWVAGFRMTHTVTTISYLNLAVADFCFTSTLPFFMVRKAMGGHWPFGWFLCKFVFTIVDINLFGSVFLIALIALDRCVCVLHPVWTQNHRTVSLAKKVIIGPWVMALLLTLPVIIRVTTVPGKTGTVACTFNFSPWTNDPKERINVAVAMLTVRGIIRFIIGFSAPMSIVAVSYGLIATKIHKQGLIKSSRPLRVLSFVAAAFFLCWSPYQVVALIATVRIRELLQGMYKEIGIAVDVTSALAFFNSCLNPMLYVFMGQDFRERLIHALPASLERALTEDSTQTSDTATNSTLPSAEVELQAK

[3] = target: T2, FPR-like 2 (FPRL2) (Homo sapiens, UniProt P25089); conditions: FPRL2, low-affinity receptor
T2 sequence (P25089 1-353): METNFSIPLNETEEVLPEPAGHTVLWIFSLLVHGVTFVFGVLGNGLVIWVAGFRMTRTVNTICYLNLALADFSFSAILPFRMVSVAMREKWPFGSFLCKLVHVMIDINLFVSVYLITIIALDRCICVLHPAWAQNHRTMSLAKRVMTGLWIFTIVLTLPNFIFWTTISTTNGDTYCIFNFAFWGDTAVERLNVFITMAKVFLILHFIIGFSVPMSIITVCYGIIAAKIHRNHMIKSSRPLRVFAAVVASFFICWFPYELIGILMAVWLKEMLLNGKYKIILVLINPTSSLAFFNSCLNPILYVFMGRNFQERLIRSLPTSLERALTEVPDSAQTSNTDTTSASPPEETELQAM

Substance: LVVYPWT [spinorphin, Leu-Val-Val-Tyr-Pro-Trp-Thr]
chemotaxis of neutrophils caused by the low mwt chemoattractant [1]: inhibited

inhibition of ligand binding to the 68-kDa protein [2]: strongest inhibitor of ligand binding
Substance: RKAMGGHWPFGWFLCKFl (FMLP receptor derived peptide) [synthetic 17-aa peptide]

Substance: formyl-Met-Leu-Phe [fMLP]
concentration needed for receptor activation [3]: only activated by high (micromolar) concentrations
